Like-named read-outs stand apart in the source and are kept apart here.
Experiments:
[1] = molecular target: T1, cystathionine-γ-lyase (CSE) (Mus musculus, UniProt Q8VCN5); experiment: In vitro assay of H2S production in mouse liver homogenates (CSE); assay type: biochemical
T1 construct: H2S production in an in vitro assay using mouse liver homogenates; from tissue; host or cells: mouse liver homogenate
Method: (§1) FIGS. 10A-10B Effect of CSE inhibitor on H2S production. FIG. 10A depicts a dose-response of L-propargylglycine (L-PAG) on H2S production in an in vitro assay using mouse liver homogenates. FIG. 10B depicts the effect of L-PAG (30 μM) on H2S generation by CSE and CBS in mouse liver homogenates. Data are presented as mean±SEM from 4 independent experiments. **P<0.01; n.s., not significant.
(§2) The effect of pharmacological CSE blockade on restoration of stable breathing in HO-2 null mice was examined. L-propargylglycine (L-PAG) is an inhibitor of CSE. […] The inhibitory effects of L-PAG were selective to CSE because H2S synthesis by cystathionine-β-synthase was unaffected (FIG. 10 B).

[2] = system: HO-2 null mice; details: any of the doses tested
Method: HO-2 null mice were treated with increasing doses of L-PAG via the intraperitoneal route, and breathing was monitored continuously for 6 hours. […] The anti-apneic effects of L-PAG were further analyzed at 30 mg/kg.

[3] = system: HO-2 null mice; experiment: Breathing (apnea, hypoapnea) monitored by whole-body plethysmography in unsedated HO-2 null mice; assay type: in vivo; details: for ED50: Mus musculus
Method: Experiments were approved by the Institutional Animal Care and Use Committee of the University of Chicago and were performed on age-matched C57/BL6 wild type and HO-2^−/− mice. At the end of the experiment, mice were euthanized by intra-cardiac injection (0.1 mL) of euthanasia solution (Beuthanasia-D Special, Schering-Plough).
Breathing was continuously monitored under room air from 10:00 AM to 4:00 PM by whole-body plethysmography (emka Technologies, Falls Church, VA) while ambient temperatures were maintained at 25±1° C. Breathing signals were collected and stored with a data acquisition system(emka Technologies, Falls Church, VA; or PowerLab 8/35, AD Instruments, Australia), and scored off-line with commercial software (RemLogic™, Natus). Apneas were scored when there was a complete pause of respiration for the duration of 3 or more breaths. Hypopneas were scored when there was a 30% reduction in tidal volume or signal amplitude, often with an abrupt return to hyperventilation breaths at the end of the event.

[4] = in vivo
Method: Comparisons of L-PAG plasma levels with (a) dose-response parameters for L-PAG pharmacologic activity and (b) the kinetics of reversal of this pharmacologic activity, support the conclusion that a threshold plasma drug level of approximately 12 to 15 μg/ml is necessary to sustain anti-apnea action. This threshold plasma drug level is consistent with both (a) the minimal anti-apnea activity of the 10 mg/kg dose of L-PAG and (b) the kinetics of the reversal of anti-apnea activity with time seen at L-PAG doses of 30 mg/kg or higher.

[5] = system: carotid body; experiment: Ex vivo carotid body sensory nerve response to hypoxia; details: 30 mg/kg, HO-2 null mice
Method: Sensory nerve activity was recorded from ex vivo carotid bodies harvested from anesthetized mice. Briefly, the carotid sinus nerve was treated with collagenase, and several nerve bundles were isolated. Action potentials from one of the nerve bundles were recorded using a suction electrode (˜20-μm-diameter tip). […] Action potentials of similar height, duration, and shape (“single” unit) were selected using Spike histogram software (LabChart 7 Pro) for analysis of the sensory nerve activity. To obtain a stable baseline sensory nerve activity, carotid bodies were first superfused for 1 hour with normoxia-equilibrated medium. Subsequently, baseline sensory nerve activity under normoxia was recorded for 5 min. Sensory nerve responses to hypoxia were monitored for 3 min. The PO2 in the medium was determined by a blood gas analyzer (ABL 5). Hypoxic response was measured as the difference between the sensory nerve activity under baseline and during hypoxia (Δimp/s).

[6] = molecular target: T2, cystathionine-β-synthase (Mus musculus, UniProt Q91WT9); experiment: In vitro assay of H2S production in mouse liver homogenates (CBS); assay type: biochemical; details: L-PAG 30 μM
T2 construct: H2S generation by CSE and CBS in mouse liver homogenates; from tissue; host or cells: mouse liver homogenate
T2 sequence (Q91WT9 1-561): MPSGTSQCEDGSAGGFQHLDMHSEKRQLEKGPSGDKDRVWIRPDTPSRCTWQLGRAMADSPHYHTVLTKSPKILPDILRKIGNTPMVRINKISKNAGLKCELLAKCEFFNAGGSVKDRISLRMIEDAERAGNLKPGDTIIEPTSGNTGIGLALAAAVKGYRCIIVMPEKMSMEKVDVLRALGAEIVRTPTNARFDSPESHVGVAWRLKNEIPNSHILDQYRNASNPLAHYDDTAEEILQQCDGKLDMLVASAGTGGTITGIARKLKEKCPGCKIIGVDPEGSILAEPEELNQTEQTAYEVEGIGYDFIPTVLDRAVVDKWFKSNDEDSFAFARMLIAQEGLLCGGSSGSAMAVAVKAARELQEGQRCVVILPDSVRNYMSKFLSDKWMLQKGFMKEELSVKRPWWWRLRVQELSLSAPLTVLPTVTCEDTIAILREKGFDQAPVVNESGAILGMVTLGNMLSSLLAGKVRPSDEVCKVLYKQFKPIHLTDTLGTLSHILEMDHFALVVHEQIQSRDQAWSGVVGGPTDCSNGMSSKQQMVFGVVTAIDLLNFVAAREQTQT
Method: as §1, §2

T1 sequence (Q8VCN5 whole entry): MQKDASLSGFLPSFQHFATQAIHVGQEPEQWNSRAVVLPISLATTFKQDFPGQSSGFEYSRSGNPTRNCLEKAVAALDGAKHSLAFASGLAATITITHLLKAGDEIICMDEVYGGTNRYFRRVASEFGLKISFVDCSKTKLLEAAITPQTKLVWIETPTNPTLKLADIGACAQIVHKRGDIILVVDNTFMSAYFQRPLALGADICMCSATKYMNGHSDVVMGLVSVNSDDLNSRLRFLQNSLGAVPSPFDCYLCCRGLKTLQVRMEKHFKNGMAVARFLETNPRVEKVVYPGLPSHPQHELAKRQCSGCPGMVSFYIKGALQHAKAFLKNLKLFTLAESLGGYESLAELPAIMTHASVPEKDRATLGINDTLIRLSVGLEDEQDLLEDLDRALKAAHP

SMILES: C#CC[C@H](N)C(=O)O [L-PAG, L-propargylglycine]
- CSE-derived H2S [1]: inhibited
- mortality [2]: no mortality
- anti-apnea activity at 10 mg/kg dose ([3]; 10 mg/kg): minimal
- hypoapnea index ([3]; 30 mg/kg intraperitoneal): reduced by L-PAG and this effect persisted even after 24 hours
- occurrence of both obstructive and central apnea ([3]; 30 mg/kg intraperitoneal): markedly reduced
- time after administration at which anti-apneic effects were seen ([3]; 30 mg/kg intraperitoneal): ~2 h
- time after which apnea returned to pre-injection values ([3]; 30 mg/kg intraperitoneal): 24 h
- ED50 ([3]; ip, intraperitoneal route, breathing monitored 6 hours, HO-2 null mice, read-out: ED50 for reducing number of apneas and restoring stable breathing): 30 mg/kg
- ED50 ([3]; systemic administration, HO2-KO mice, FIG. 11, read-out: ED50 for inhibiting SDB (comparative dose-response)): ~30 mg/kg
- reduction of number of apneas and hypoapnea index after oral administration ([3]; oral 30 mg/kg, compared with intraperitoneal): equally effective
- bioavailability [4]: 100%
- plasma clearance profiles, oral versus i.p. [4]: essentially identical
- threshold plasma drug level necessary to sustain anti-apnea action ([4]; mouse): 12 to 15 µg/mL
- carotid body sensitivity to hypoxia [5]: markedly reduced
- H2S synthesis by cystathionine-β-synthase [6]: unaffected

From patent US12280038B2, “L-pag derivatives for treatment of sleep disordered breathing (SDB)” (priority 2016, dated 2025)
